# Data from ChEMBL document CHEMBL5346978, “Exploration of Tetrahydroisoquinoline- and Benzo[c]azepine-Based Sphingosine 1-Phosphate Receptor 1 Agonists for the Treatment of Multiple Sclerosis” (J Med Chem, 2023).
# pEC50: −log10 of the molar value.
# Experiments:
# Assay type in all cases: functional, cell-based
# [1] = target: T1, Sphingosine 1-phosphate receptor 1 (Homo sapiens, UniProt P21453); assay: Agonist activity at S1P1 (unknown origin) expressed in human HEK293/Galpha15 cells assessed as Ca2+ activation at 1 uM measured for 2 hrs by FLIPR analysis relative to control
# [2] = target: T1, Sphingosine 1-phosphate receptor 1; assay: Agonist activity at S1P1 (unknown origin) expressed in PathHunter CHO-K1 EDG1 beta-arrestin cells assessed as beta-arrestin2 recruitment at 1 uM incubated for 90 mins by chemiluminescence based assay relative to control
# [3] = target: T1, Sphingosine 1-phosphate receptor 1; assay: Agonist activity at S1P1 (unknown origin) expressed in PathHunter CHO-K1 EDG1 beta-arrestin cells assessed as beta-arrestin2 recruitment incubated for 90 mins by chemiluminescence based assay
# T1 sequence (P21453 whole entry): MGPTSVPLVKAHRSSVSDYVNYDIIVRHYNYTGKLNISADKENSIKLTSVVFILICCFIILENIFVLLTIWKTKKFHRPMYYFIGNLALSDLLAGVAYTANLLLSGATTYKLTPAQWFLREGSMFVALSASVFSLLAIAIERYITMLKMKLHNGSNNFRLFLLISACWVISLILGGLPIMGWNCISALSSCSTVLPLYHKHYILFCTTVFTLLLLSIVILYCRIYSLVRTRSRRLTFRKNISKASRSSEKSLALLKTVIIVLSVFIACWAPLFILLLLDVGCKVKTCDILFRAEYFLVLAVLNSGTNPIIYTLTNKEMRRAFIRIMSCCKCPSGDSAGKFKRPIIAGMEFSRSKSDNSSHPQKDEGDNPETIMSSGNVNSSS
SMILES,Activity [1] [%],Activity [2] [%],Activity ([2]; filed as agonist) [%],pEC50 [3],Activity ([1]; filed as agonist) [%]
CC(C)Oc1ccc(CN(C)c2ccc3c(c2)CCN(S(=O)(=O)CCC(=O)O)C3)cc1C#N,8,9,,,
CC(C)Oc1ccc(COc2ccc3c(c2)CCN(C(C)C(=O)O)C3)cc1C#N (centres undefined),10,18,,,
CC(C)Oc1ccc(COc2ccc3c(c2)CCN(S(=O)(=O)CCCO)C3)cc1C#N,6,,72,6.30,
CC(C)Oc1ccc(COc2ccc3c(c2)CCN(CCO)C3)cc1C#N,7,32,,,
CC(C)Oc1ccc(COc2ccc3c(c2)CCN(S(=O)(=O)CCO)C3)cc1C#N,,,88,6.72,44
COC(=O)CN1CCc2cc(OCc3ccc(OC(C)C)c(C#N)c3)ccc2C1,13,32,,,
CC(C)Oc1ccc(COc2cccc3c2CCN(S(=O)(=O)CCCO)C3)cc1C#N,3,1,,,
CC(C)Oc1ccc(COc2ccc3c(c2)CCCN3S(=O)(=O)CCCO)cc1C#N,3,35,,,
CC(C)Oc1ccc(COc2ccc3c(c2)CCN(S(=O)(=O)CCCO)C3C)cc1C#N (centres undefined),12,,45,,
COC(=O)CCS(=O)(=O)N1CCc2cc(NCc3ccc(OC(C)C)c(C#N)c3)ccc2C1,13,26,,,
COC(=O)CCS(=O)(=O)N1CCc2cc(N(C)Cc3ccc(OC(C)C)c(C#N)c3)ccc2C1,12,5,,,
CC(C)Oc1ccc(COc2ccc3c(c2)CN(S(=O)(=O)CCC(=O)O)CC3)cc1C#N,3,4,,,
CC(C)Oc1ccc(COc2ccc3c(c2)CN(CCC(=O)O)CC3)cc1C#N,1,2,,,
CC(C)Oc1ccc(C(=O)Nc2ccc3c(c2)CCN(S(=O)(=O)CCC(=O)O)C3)cc1C#N,18,15,,,

# More lines, now with the values ahead:
Activity [1] [%],Activity [2] [%],Activity ([2]; filed as agonist) [%],pEC50 [3],Activity ([1]; filed as agonist) [%],SMILES
5,3,,,,COC(=O)CCS(=O)(=O)N1CCc2cc(Nc3ccc(OC(C)C)c(C#N)c3)ccc2C1
7,,91,6.81,,COC(=O)CCCN1CCc2cc(OCc3ccc(OC(C)C)c(C#N)c3)ccc2C1
9,25,,,,CC(C)Oc1ccc(COc2ccc3c(c2)CCN(S(=O)(=O)CCC(=O)O)CC3)cc1C#N
3,7,,,,CC(C)Oc1ccc(COc2ccc3c(c2)CN(S(=O)(=O)CCCO)CC3)cc1C#N
6,,89,6.55,,COC(=O)CS(=O)(=O)N1CCc2cc(OCc3ccc(OC(C)C)c(C#N)c3)ccc2C1
4,1,,,,CC(C)Oc1ccc(COc2cccc3c2CCN(S(=O)(=O)CCC(=O)O)C3)cc1C#N
3,2,,,,CC(C)Oc1ccc(COc2ccc3c(c2)CCCN(CCC(=O)O)C3)cc1C#N
5,30,,,,CC(C)Oc1ccc(COc2ccc3c(c2)CCN(CCCO)C3)cc1C#N
14,26,,,,CC(C)Oc1ccc(COc2ccc3c(n2)CCN(C(=O)CCC(=O)O)C3)cc1C#N
13,6,,,,CC(C)Oc1ccc(COc2ccc3c(c2)CN(CCC(=O)O)CCC3)cc1C#N
7,7,,,,COC(=O)CCS(=O)(=O)N1CCc2cc(NC(=O)c3ccc(OC(C)C)c(C#N)c3)ccc2C1
6,2,,,,CC(C)Oc1ccc(COc2cccc3c2CCN(CCC(=O)O)C3)cc1C#N
3,24,,,,CC(C)Oc1ccc(COc2ccc3c(c2)CCN(CCCCO)C3)cc1C#N
8,0,,,,CC(C)Oc1ccc(COc2ccc3c(c2)CN(S(=O)(=O)CCC(=O)O)CCC3)cc1C#N
21,17,,,,CC(C)Oc1ccc(COc2ccc3c(c2)CCN(S(=O)(=O)CC(=O)O)C3C)cc1C#N (centres undefined)
14,24,,,,CC(C)Oc1ccc(COc2ccc3c(c2)OCCN(CCC(=O)O)C3)cc1C#N
